Key:
[1] = tested on: extracellular acetylcholine in the cerebral cortex; test: Amount of extracellular acetylcholine in mouse brain by in vivo microdialysis (Test Example 1); parameters: species or system ddY mouse; details: oral 30 mg/kg, FIG. 1
Experimental: The compound A, B, and C were administered orally to the mouse and the effect on the amount of extracellular acetylcholine in the brain was examined. The brain microdyalysis method using the mouse is proposed as a test for evaluating cognitive dysfunction including Alzheimer type dementia. The brain microdyalysis method is a system that can monitor the variation of extracellular neurotransmitter release in real time at the local parts in the brain while the test animals are moving freely without anesthesia.
7-weeks-old male ddY mice were purchased from Japan SLC, Inc. and subjected to the experiment after one week habituation period. The animals were reared in the rearing chamber provided with air conditioner (under the condition that the temperature was 22° C.±1° C., the relative humidity was 50±10%, and the irradiation time was 12 hours (8:00 to 20:00)). The feeding method was that the commercially available MF powdery feed (manufactured by Oriental Yeast Co., ltd.) and tap water were taken freely.
In the two days before the start of the experiment, the fixing operation of the guide cannula for inserting the dialysis probe in the mouse was conducted in advance. Under the deep anesthetized conditions, the guide cannula (depth 4 mm) (manufactured by Eicom Corp.,) was inserted in and fixed on cerebral cortex prefrontal area (which was 1.9 mm forward and 0.5 mm right side from the bregma and to which the depth from cranial surface was 0.8 mm). Buprenorphine (0.01 mg/kg manufactured by Sigma-Aldrich Japan) was administered to the mouse as analgesic after the operation. Each mouse was reared in the separate cage after the operation.
In the step of measuring extracellular acetylcholine in the brain, the dialysis probe (membrane length 3 mm) (manufactured by Eicom Corp.,) was inserted in the guide cannula and the Ringer's solution in the Japanese Pharmacopeia (containing NaCl (147.2 mM), KCl (4.0 mM), and CaCl2 (2.2 mM); manufactured by FUSO CHEMICAL CO., LTD.) was perfused at the flow velocity of 1 μL/min. The sample obtained by the perfusion was collected every 20 minutes and was immediately continuously automatically injected in the high-speed liquid chromatography/electrochemical detector (HPLC/ECD) system (manufactured by Eicom Corp., HTEC-500) together with the internal standard material (isopropylhomocholine, 250 fmol) and acetylcholine was measured under the condition described below.
• Column: Eicompak AC-GEL (2.0 mm; i.d.×150 mm) (manufactured by Eicom Corp.,) • Precolumn: PC-05-03 (3.0 mm; i.d.×40 mm) (manufactured by Eicom Corp.,) • Enzyme-immobilized column: AC-Enzympak (3.0 mm; i.d.) (manufactured by Eicom Corp.,) • Mobile Phase: 50 mM potassium hydrogen carbonate buffer containing 400 mg/L sodium decansulfonic acid and 134 μM EDTA (pH 8.3) • Flow Velocity: 150 μl/min. • Temperature of column: 33° C. • Applied voltage of ECD: +450 mV • Reference electrode: Ag/AgCl electrode • Work electrode: platinum electrode
The compound A prepared according to the procedure described in Manufacturing Example 1 was dissolved in 2.5% DMSO solution in advance to prepare for the test. […] The amount of the extracellular acetylcholine released was measured by the procedure described above in (a) Used animal and Rearing Procedure in real time for 120 minutes after the administration. The mouse in Vehicle group took only 2.5% DMSO solution orally in the same way and the amount of the extracellular acetylcholine was measured. […]

[2] = tested on: model mouse with the inflammation in brain induced by administering LPS; test: Forced swimming test in mouse with inflammation in brain induced by LPS (Test Example 5); type: in vivo, C57/BL6J mice; details: test 24 hours after LPS, FIG. 5
Text: In regard to the depressive symptoms induced by taking LPS (Lipopolysaccharide), the effect of inhibiting the symptom by oral administration of the compound A was examined. The inflammation in the brain is thought to be one of the main onset factors of depression. It is known that LPS causes the inflammation in the brain by inducing the decrease in brain-derived neurotrophic factor and the variation of the density of dendrite of neuron, activating microglia and the like and induce depressive symptoms. […]
In 24 hours after the intraperitoneal administration of LPS, forced swimming test was conducted. The depressive symptoms were evaluated by measurement of the immobility time.
Water (25±1° C.) was put into the acryl resin cylinder (diameter 19 cm, height 25 cm) up to a height of 13 cm. The subject mouse was forced to swim for 6 minutes one by one and the state was video-recorded. […] “The state that the mouse floated on the water surface without moving its limbs and the like” was regarded as immobility and the Immobility Time (sec.) was measured during the test of 6 minutes.
From the results obtained, the mean (Mean) and the standard error (SEM) were calculated. The significant difference was assessed between the control group and Vehicle group and between the compound A administration group and the […] by using Turkey-Kramer's test. […]

O=C1CC[C@H](Cc2cc(O)cc(O)c2)O1 [compound A, (R)-5-(3,5-dihydroxyphenyl)-γ-valerolactone]
amount of extracellular acetylcholine in the cerebral cortex versus Vehicle group ([1]; 40 and 60 minutes after the administration): significant increase
amount of extracellular acetylcholine in the cerebral cortex (ratio to basic released amount) ([1]; measured for 120 minutes after administration, compared with before administration): increased
increase of the immobility time in forced swimming test ([2]; oral 10 mg/kg and 30 mg/kg groups, LPS 0.5 mg/kg i.p. 30 minutes later): reduced
immobility time in forced swimming test ([2]; oral 30 mg/kg, LPS 0.5 mg/kg i.p.): on the same level as that in the control group
